In ChEMBL document CHEMBL1151562, “Stereoselective synthesis of novel analogues of 2-deoxy- and 2,3-dideoxynucleosides with potential antiviral activity” (Bioorg Med Chem Lett, 1994):
Activity calls are given as the source filed them.

Columns and labels:
Assay type in all cases: functional, cell-based
MOLT-4 [1] = experiment: Tested for antiproliferative activity against human tumor Molt-4 cell line up to 72 hrs at concentration of 1.25 ug/ml; Inactive
MT2 [2] = experiment: Tested for antiproliferative activity against human tumor MT-2 T-lymphoid cells up to 72 hrs at concentration of 2.5 ug/ml; Inactive
MT2 [3] = experiment: Tested for antiproliferative activity against human tumor MT-2 T-lymphoid cells up to 72 hrs at concentration of 5 ug/ml; Inactive
[4] = Tested for cell count against human tumor DAUDI EBV-immortalized B-lymphoid cells for antiproliferative activity; Inactive
Daudi [5] = experiment: Tested for antiproliferative activity against human tumor DAUDI EBV-immortalized B-lymphoid cells up to 72 hrs at concentration of 5 ug/ml; Inactive
[6] = (§1) Tested for antiproliferative activity against human tumor U937 cell line up to 72 hrs at concentration of 5 ug/ml; Inactive
MT2 [7] = experiment: Tested for antiproliferative activity against human tumor MT-2 T-lymphoid cells up to 72 hrs at concentration of 1.25 ug/ml; Inactive
Daudi [8] = experiment: Tested for antiproliferative activity against human tumor DAUDI EBV-immortalized B-lymphoid cells up to 72 hrs at concentration of 1.25 ug/ml; Inactive
MOLT-4 [9] = experiment: Tested for antiproliferative activity against human tumor Molt-4 cell line up to 72 hrs at concentration of 10 ug/ml; Inactive
MOLT-4 [10] = experiment: Tested for antiproliferative activity against human tumor Molt-4 cell line up to 72 hrs at concentration of 2.5 ug/ml; Inactive
[11] = Tested for antiproliferative activity against human tumor U937 cell line up to 72 hrs at concentration of 1.25 ug/ml; Inactive
MOLT-4 [12] = experiment: Tested for antiproliferative activity against human tumor Molt-4 cell line up to 72 hrs at concentration of 5 ug/ml; Inactive
[13] = Tested for cell count against human tumor MT-2 T-lymphoid cells for antiproliferative activity; Inactive
[14] = (§2) Tested for antiproliferative activity against human tumor U937 cell line up to 72 hrs at concentration of 10 ug/ml; Inactive
Daudi [15] = experiment: Tested for antiproliferative activity against human tumor DAUDI EBV-immortalized B-lymphoid cells up to 72 hrs at concentration of 2.5 ug/ml; Inactive
[16] = Tested for cell count against human tumor Molt-4 cell line for antiproliferative activity; Inactive
[17] = Tested for antiproliferative activity against human tumor U937 cell line up to 72 hrs at concentration of 2.5 ug/ml; Inactive
MT2 [18] = experiment: Tested for antiproliferative activity against human tumor MT-2 T-lymphoid cells up to 72 hrs at concentration of 10 ug/ml; Inactive
Daudi [19] = experiment: Tested for antiproliferative activity against human tumor DAUDI EBV-immortalized B-lymphoid cells up to 72 hrs at concentration of 10 ug/ml; Inactive
K562 = experiment: Tested for cell count against human tumor K562 erythromyeloid stem cells for antiproliferative activity; Inactive
[20] = Tested for cell count against human tumor HL60 myeloid cells for antiproliferative activity; Inactive
HL-60 [21] = experiment: Tested for antiproliferative activity against human tumor HL60 myeloid cells up to 72 hrs at concentration of 10 ug/ml; Inactive
Daudi [22] = experiment: as §2; conditions: U-937
HL-60 [23] = experiment: as §1

Measured: Activity

C[C@H]1C[C@@H](CO)O[C@H]1n1ccc(=O)[nH]c1=O
not listed: HL-60 [21] | Daudi [22] | HL-60 [23]
inactive: all other assays above

C[C@@H]1C[C@@H](CO)O[C@H]1n1ccc(=O)[nH]c1=O
not listed: HL-60 [21] | Daudi [22] | HL-60 [23]
inactive: all other assays above

CCCC1C(O)[C@@H](CO)O[C@H]1n1ccc(=O)[nH]c1=O (single isomer, unassigned)
not listed: HL-60 [21] | Daudi [22] | HL-60 [23]
inactive: all other assays above

CC1[C@@H](O)[C@@H](CO)O[C@H]1n1ccc(=O)[nH]c1=O (single isomer, unassigned; 5a)
not listed: [14] | HL-60 [23]
inactive: all other assays above

C=CCC1C(O)[C@@H](CO)O[C@H]1n1ccc(N)nc1=O (single isomer, unassigned)
not listed: HL-60 [21] | Daudi [22] | HL-60 [23]
inactive: all other assays above

CC1[C@@H](O)[C@@H](CO)O[C@H]1n1ccc(=O)[nH]c1=O (single isomer, unassigned; 5b)
not listed: HL-60 [21] | Daudi [22] | HL-60 [23]
inactive: all other assays above

C=CC[C@H]1C[C@@H](CO)OC1n1ccc(=O)[nH]c1=O (some centres undefined)
not listed: HL-60 [21] | Daudi [22]
inactive: all other assays above
